Reference: the NIST ThermoML archive (doi:10.1021/je0301038)

Assay: xn = mol fraction of the nth substance listed
Settings: Liquid, Pycnometric method, x1 = 0.4998

FC(Cl)(Cl)Cl [trichlorofluoromethane] + FC(F)(Cl)Cl
Settings	mass density [kg/m3]
229.99 K, 36407 kPa	1642.58
230 K, 1073 kPa	1584.87
230 K, 2061 kPa	1587.07
230 K, 3560 kPa	1589.87
230.01 K, 1362 kPa	1585.49
230.01 K, 1769 kPa	1586.39
230.01 K, 2415 kPa	1587.69
230.01 K, 2764 kPa	1588.35
230.01 K, 3080 kPa	1589
230.01 K, 10736 kPa	1602.83
230.01 K, 22197 kPa	1621.64
230.01 K, 50366 kPa	1660.98
230.01 K, 63788 kPa	1677.26
270 K, 755 kPa	1479.99
270 K, 1039 kPa	1480.78
270 K, 1716 kPa	1482.68
270 K, 2040 kPa	1483.59
270 K, 2400 kPa	1484.58
270 K, 2768 kPa	1485.54
270 K, 3627 kPa	1487.88
270 K, 15483 kPa	1517.06
270 K, 25381 kPa	1538
270 K, 35970 kPa	1557.73
270 K, 45944 kPa	1574.79
270 K, 56182 kPa	1590.7
270 K, 63322 kPa	1601.09
270.01 K, 1412 kPa	1481.79
270.01 K, 3077 kPa	1486.41
270.01 K, 8526 kPa	1500.56
298.14 K, 686 kPa	1402.27
298.14 K, 1019 kPa	1403.48
298.14 K, 2067 kPa	1407.39
298.14 K, 2429 kPa	1408.71
298.14 K, 2749 kPa	1409.89
298.14 K, 6905 kPa	1424.28
298.14 K, 14368 kPa	1447.12
298.14 K, 20993 kPa	1465.01
298.14 K, 42543 kPa	1512.9
298.14 K, 50266 kPa	1527.35
298.14 K, 57226 kPa	1539.49
298.14 K, 63755 kPa	1550.31
298.14 K, 69807 kPa	1559.74
298.15 K, 1398 kPa	1404.87
298.15 K, 1714 kPa	1406.06
298.15 K, 3086 kPa	1411.1
298.15 K, 3454 kPa	1412.44
298.15 K, 28151 kPa	1482.31
298.15 K, 36116 kPa	1499.98
319.99 K, 1077 kPa	1338.31
319.99 K, 1422 kPa	1340.05
319.99 K, 1769 kPa	1341.72
319.99 K, 2102 kPa	1343.35
319.99 K, 2468 kPa	1345.14
319.99 K, 2807 kPa	1346.81
319.99 K, 3154 kPa	1348.46
319.99 K, 3382 kPa	1349.54
319.99 K, 7540 kPa	1367.61
319.99 K, 14192 kPa	1392.66
319.99 K, 20555 kPa	1413.23
319.99 K, 27780 kPa	1434.19
319.99 K, 36829 kPa	1456.94
319.99 K, 43292 kPa	1471.79
319.99 K, 49802 kPa	1485.45
319.99 K, 56704 kPa	1498.94
319.99 K, 62748 kPa	1510.07
319.99 K, 69080 kPa	1521.1
349.98 K, 1415 kPa	1240.4
349.98 K, 2137 kPa	1246.23
349.98 K, 2476 kPa	1248.87
349.98 K, 2793 kPa	1251.27
349.98 K, 3057 kPa	1253.22
349.98 K, 3564 kPa	1256.93
349.98 K, 7128 kPa	1280.11
349.98 K, 14242 kPa	1317.8
349.98 K, 21180 kPa	1347.2
349.98 K, 27731 kPa	1370.9
349.98 K, 35848 kPa	1396.4
349.98 K, 42725 kPa	1415.5
349.98 K, 49699 kPa	1433.1
349.98 K, 63152 kPa	1463.4
349.98 K, 67876 kPa	1472.9
349.99 K, 1706 kPa	1242.74
349.99 K, 56839 kPa	1449.7
374.97 K, 2088 kPa	1141.8
374.97 K, 2486 kPa	1147.25
374.97 K, 3125 kPa	1156.09
374.97 K, 3513 kPa	1160.16
374.97 K, 7191 kPa	1197.39
374.97 K, 13814 kPa	1245.37
374.97 K, 21029 kPa	1284.3
374.97 K, 35276 kPa	1341.17
374.98 K, 2825 kPa	1151.69
374.98 K, 27477 kPa	1312.44
374.98 K, 42480 kPa	1364.11
374.98 K, 49122 kPa	1383.05
374.98 K, 55869 kPa	1400.52
374.98 K, 61365 kPa	1413.75
374.98 K, 69602 kPa	1432.06
399.96 K, 3164 kPa	1019.46
399.96 K, 4220 kPa	1047.59
399.96 K, 21341 kPa	1223.13
399.97 K, 3545 kPa	1030.57
399.97 K, 4902 kPa	1062.22
399.97 K, 5593 kPa	1075.12
399.97 K, 6171 kPa	1085.57
399.97 K, 7297 kPa	1101.78
399.97 K, 14445 kPa	1176.05
399.97 K, 27495 kPa	1255.89
399.97 K, 42176 kPa	1315.43
399.97 K, 49196 kPa	1338.37
399.97 K, 56478 kPa	1359.31
399.98 K, 35409 kPa	1290.45
399.98 K, 62903 kPa	1376.29
399.98 K, 68677 kPa	1390.42
424.96 K, 4905 kPa	873.33
424.96 K, 5555 kPa	914.74
424.96 K, 6222 kPa	944.04
424.96 K, 7091 kPa	972.83
424.96 K, 13955 kPa	1091.53
424.96 K, 27401 kPa	1198.64
424.97 K, 21076 kPa	1156.9
424.97 K, 35181 kPa	1238.98
424.97 K, 41997 kPa	1268.18
424.97 K, 49019 kPa	1294.18
424.97 K, 56094 kPa	1317.32
424.97 K, 62391 kPa	1335.91
424.97 K, 68657 kPa	1352.82
